Values of other authors in the PKSmart pharmacokinetics tables (Seal et al. 2025).

Experiment: Lombardo, Berellini, Obach 2018, Drug Metab Dispos 46:1466, doi 10.1124/dmd.118.082966
Conditions: human; for MRT / Vd / clearance / half-life: in vivo, iv; for fraction unbound: plasma

Compound	MRT	Vd	clearance	half-life	fraction unbound
NCCc1ccc(O)c(O)c1	0.19 h	0.74 L/kg	65.9 mL/min/kg	0.42 h	0.87
Cn1cc(C(=O)C2CCc3[nH]cnc3C2)c2ccccc21 (stereo not drawn)	6.28 h	2.65 L/kg	7.03 mL/min/kg	4.94 h	–
CC(C)(C)NCC(O)COc1cccc2c1CC(O)C(O)C2 (stereo not drawn)	11 h	1.9 L/kg	2.9 mL/min/kg	9.2 h	0.14
Cc1ccccc1OCC(O)CNCCOc1ccc(C(N)=O)cc1 (stereo not drawn)	4.8 h	4 L/kg	14 mL/min/kg	2.5 h	0.089
CC(C)(C)NC[C@H](O)COc1nsnc1N1CCOCC1	3 h	1.5 L/kg	8.5 mL/min/kg	2.2 h	–
O=c1[nH]c(O)cn1/N=C/c1ccc(-c2ccc([N+](=O)[O-])cc2)o1	14 h	0.37 L/kg	0.43 mL/min/kg	10 h	–
CCc1c2c(nc3ccc(OC(=O)CCC(=O)Oc4c(C)c(C)c5c(c4C)CC[C@@](C)(CCC[C@H](C)CCC[C@H](C)CCCC(C)C)O5)cc13)-c1cc3c(c(=O)n1C2)COC(=O)[C@]3(O)CC	3.34 h	0.15 L/kg	0.81 mL/min/kg	3.77 h	–
C[C@H](Cc1cc2c(c(C(N)=O)c1)N(CCCO)CC2)NCCOc1ccccc1OCC(F)(F)F	–	–	2.8 mL/min/kg	3.6 h	0.05
COC(=O)O[C@@]12CO[C@@H]1C[C@H](O)[C@@]1(C)C(=O)C(OC(C)=O)=C3C(C)[C@@H](OC(=O)C(O)C(NC(=O)c4ccccc4)c4ccccc4)C[C@@](O)([C@@H](OC(=O)c4ccccc4)[C@H]21)C3(C)C (stereo partly drawn)	13 h	6.9 L/kg	8.6 mL/min/kg	31 h	–
CN(C)Cc1nnc2n1-c1ccc(Cl)cc1C(c1ccccc1)=NC2	2.6 h	0.98 L/kg	6.2 mL/min/kg	2.1 h	–
CNC(=O)Nc1c(OCCN2CCCC2)c(OC)c2occc2c1OC	4.2 h	0.8 L/kg	3.2 mL/min/kg	5 h	–
COc1ccc2[nH]cc(CCNC(C)=O)c2c1	1.1 h	1.1 L/kg	16.5 mL/min/kg	1.1 h	0.39
CNC(=O)c1c(I)c(NC(C)=O)c(I)c(C(=O)O)c1I	1.2 h	0.17 L/kg	2.4 mL/min/kg	1.3 h	–
CCOCCO[C@@H]1CC[C@@H](C[C@@H](C)[C@@H]2CC(=O)C(C)=CC(C)[C@@H](O)C(OC)C(=O)C(C)C[C@H](C)/C=C/C=C/C=C(\C)[C@@H](OC)C[C@@H]3CC[C@@H](C)[C@@](O)(O3)C(=O)C(=O)N3CCCCC3C(=O)O2)C[C@H]1OC (stereo partly drawn)	60.9 h	44.5 L/kg	12.2 mL/min/kg	93.9 h	–
NC(CCC(=O)NC(CS(=O)(=O)CCOP(=O)(N(CCCl)CCCl)N(CCCl)CCCl)C(=O)NC(C(=O)O)c1ccccc1)C(=O)O (stereo not drawn)	0.27 h	0.46 L/kg	28.5 mL/min/kg	0.28 h	–
O=C1NC(c2ccccc2)(c2ccccc2)C(=O)N1COP(=O)(O)O	0.17 h	0.06 L/kg	3.5 mL/min/kg	0.16 h	0.05
N=C(N)N=c1[nH]c(CSCCC(=N)NS(N)(=O)=O)cs1	3 h	1.2 L/kg	6.6 mL/min/kg	2.8 h	0.84
CC[C@@H](C)N(C)C(=O)c1cc2ccccc2c(-c2ccccc2Cl)n1	5.4 h	1.7 L/kg	5.9 mL/min/kg	3.7 h	–
C#C[C@]1(O)CC[C@H]2[C@@H]3CCC4=Cc5oncc5C[C@]4(C)[C@H]3CC[C@@]21C	5.49 h	5.18 L/kg	15.7 mL/min/kg	2.31 h	–
CC(C)=CCC[C@](C)(O[C@@H]1O[C@H](CO)[C@@H](O)[C@H](O)[C@H]1O)[C@H]1CC[C@]2(C)[C@@H]1[C@H](O)C[C@@H]1[C@@]3(C)CC[C@H](O[C@@H]4O[C@H](CO)[C@@H](O)[C@H](O)[C@H]4O[C@@H]4O[C@H](CO)[C@@H](O)[C@H](O)[C@H]4O)C(C)(C)[C@@H]3CC[C@]12C	20.2 h	0.11 L/kg	0.09 mL/min/kg	18.5 h	–
C#CCC(Cc1cnc2nc(N)nc(N)c2n1)c1ccc(C(=O)NC(CCC(=O)O)C(=O)O)cc1 (stereo not drawn)	3.7 h	1.01 L/kg	4.35 mL/min/kg	15 h	0.33
CC(C)(C)OC(=O)NC1CCCCC/C=C\[C@@H]2C[C@@]2(C(=O)NS(=O)(=O)C2CC2)NC(=O)C2C[C@@H](OC(=O)N3Cc4cccc(F)c4C3)CN2C1=O (stereo partly drawn)	0.32 h	0.22 L/kg	11.5 mL/min/kg	1.81 h	0.02
CC[C@]1(O)C[C@@H]2CN(CCc3c([nH]c4ccccc34)[C@@](C(=O)OC)(c3cc4c(cc3OC)N(C=O)[C@H]3[C@@](O)(C(=O)OC)[C@H](OC(C)=O)[C@]5(CC)C=CCN6CC[C@]43[C@@H]65)C2)C1	20 h	2.4 L/kg	2 mL/min/kg	23 h	–
CCCCc1nc(C)c(CC(=S)N(C)C)c(=O)n1Cc1ccc(-c2ccccc2-c2nnn[nH]2)cc1	1.1 h	0.6 L/kg	9.6 mL/min/kg	5.5 h	–
